Source: patent US5428021A, “Human leukocyte elastase (HLE) inhibitors, and related pharmaceutical compositions and methods of use” (SRI International, priority 1994, dated 1995)

Tests used:
Assay type in all cases: biochemical
[1] = biological target: T1, Elastase (human neutrophil (HLE)) (Homo sapiens, UniProt P08246); assay: Inhibition of human leukocyte (neutrophil) elastase, progress curve method (methoxy-Suc-Ala-Ala-Pro-Val-pNA substrate); conditions: for Ki / koff / kon: 25 mM HEPES, 1M NaCl, 0.1% BRIJ 35, pH 6.5, 25° C.; for kinact/KI: pH 6.5, read-out: kobs /[I] Enzyme; for kobs /[I] HLE / kobs /[I] Enzyme: relative selectivity, HLE over HLE
T1 construct: purchased Calbiochem
T1 sequence (P08246 30-267): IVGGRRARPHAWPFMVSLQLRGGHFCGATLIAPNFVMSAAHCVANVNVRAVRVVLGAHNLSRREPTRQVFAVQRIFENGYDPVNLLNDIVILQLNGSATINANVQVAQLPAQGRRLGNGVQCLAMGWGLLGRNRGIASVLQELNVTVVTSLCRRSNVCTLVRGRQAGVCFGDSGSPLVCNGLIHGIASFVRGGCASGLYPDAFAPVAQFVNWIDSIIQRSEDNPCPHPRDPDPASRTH
Method: (§1) Enzymes and their substrates, listed below, were obtained from Calbiochem.
(§2) Enzyme and substrate concentrations were chosen to obtain pseudo first order conditions for the entire timecourse, with uninhibited enzyme maintaining a constant rate of product formation for longer than the fifteen minute sampling time.
(§3) Additional compounds within the scope of the invention were evaluated using the progress curve method of Stein et al. to determine the kinetic constants kon, koff, as well as the pKi and relative selectivity for HLE over other serine proteases.

[2] = biological target: T2, α Chymotrypsin (bovine pancreatic) (Bos taurus, UniProt P00766); assay: Inhibition of chymotrypsin, progress curve method (Suc-Gly-Gly-Phe-pNA substrate); conditions: for kinact/KI: pH 7.5, read-out: kobs /[I] Enzyme; for kobs /[I] HLE / kobs /[I] Enzyme: relative selectivity, HLE over Chymotrypsin
T2 construct: purchased Calbiochem
Method: as §1
Suc--Gly--Gly--Phe--pNA
as §2, §3

[3] = biological target: T3, Elastase (porcine pancreatic) (PPE) (Sus scrofa, UniProt P00772); assay: Inhibition of porcine pancreatic elastase (PPE), progress curve method (Suc-Ala-Ala-Ala-pNA substrate); conditions: for kinact/KI: pH 7.5, read-out: kobs /[I] Enzyme; for kobs /[I] HLE / kobs /[I] Enzyme: relative selectivity, HLE over PPE
T3 construct: purchased Calbiochem
Method: as §1, §2, §3

[4] = biological target: T4, Cathepsin-G (human neutrophil) (Homo sapiens, UniProt P08311); assay: Inhibition of cathepsin G, progress curve method (Suc-Ala-Ala-Pro-Phe-pNA substrate); conditions: for kinact/KI: pH 6.5, read-out: kobs /[I] Enzyme; for kobs /[I] HLE / kobs /[I] Enzyme: relative selectivity, HLE over Cathepsin G
T4 construct: purchased Calbiochem
T4 sequence (P08311 21-255): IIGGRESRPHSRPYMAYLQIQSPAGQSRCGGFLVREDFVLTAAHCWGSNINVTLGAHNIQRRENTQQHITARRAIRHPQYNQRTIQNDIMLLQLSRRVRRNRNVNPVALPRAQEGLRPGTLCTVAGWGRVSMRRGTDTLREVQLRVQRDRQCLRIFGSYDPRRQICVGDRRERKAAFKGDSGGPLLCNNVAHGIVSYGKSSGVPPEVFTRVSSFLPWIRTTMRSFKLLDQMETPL
Method: as §1
Cathepsin-G (human neutrophil
Suc--Ala--Ala--Pro--Phe--
as §2, §3

[5] = biological target: T5, Trypsin (bovine pancreatic) (Bos taurus, UniProt P00760); assay: Inhibition of trypsin, progress curve method (Bz-Arg-pNA substrate); conditions: for kinact/KI: pH 7.5, read-out: kobs /[I] Enzyme; for kobs /[I] HLE / kobs /[I] Enzyme: relative selectivity, HLE over Trypsin
T5 construct: purchased Calbiochem
T5 sequence (P00760 24-246): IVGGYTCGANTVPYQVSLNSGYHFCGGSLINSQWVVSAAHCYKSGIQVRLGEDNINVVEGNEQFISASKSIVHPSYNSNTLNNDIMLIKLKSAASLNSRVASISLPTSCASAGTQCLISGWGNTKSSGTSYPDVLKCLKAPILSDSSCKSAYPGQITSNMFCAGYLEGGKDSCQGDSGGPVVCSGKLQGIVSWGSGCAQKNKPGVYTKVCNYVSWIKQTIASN
Method: as §1, §2, §3

T3 sequence (P00772 27-266): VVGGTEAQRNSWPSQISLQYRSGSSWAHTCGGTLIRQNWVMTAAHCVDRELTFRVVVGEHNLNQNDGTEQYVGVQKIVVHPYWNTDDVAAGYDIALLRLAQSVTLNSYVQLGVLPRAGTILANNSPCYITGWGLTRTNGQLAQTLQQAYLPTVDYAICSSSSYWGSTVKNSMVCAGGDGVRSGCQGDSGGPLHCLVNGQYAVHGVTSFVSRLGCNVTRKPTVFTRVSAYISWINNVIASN

SMILES | Ki ([1]; HLE) [nM] | koff ([1]; pH 6.5, HLE) [s⁻¹] | kon ([1]; pH 6.5, HLE) [M⁻¹ s⁻¹] | kon ([1]; HLE) | kinact/KI [2] [M⁻¹ s⁻¹] | kobs /[I] HLE / kobs /[I] Enzyme [2] | kinact/KI [3] [M⁻¹ s⁻¹] | kobs /[I] HLE / kobs /[I] Enzyme [3] | kinact/KI [4] [M⁻¹ s⁻¹] | kobs /[I] HLE / kobs /[I] Enzyme [4] | kinact/KI [5] [M⁻¹ s⁻¹] | kobs /[I] HLE / kobs /[I] Enzyme [5] | koff ([1]; HLE) [s⁻¹] | kinact/KI [1] [M⁻¹ s⁻¹] | kobs /[I] HLE / kobs /[I] Enzyme [1]
CCOc1nc2ccc(N)c(C)c2c(=O)o1 | 0.0145 | 2.3e-05 | 750000 |  |  |  |  |  |  |  |  |  |  |  | 
CCOc1nc2ccc(C(C)NC(=O)[C@@H](NC(=O)OC(C)(C)C)C(C)C)c(C)c2c(=O)o1 (single isomer, unassigned) [7 Isomer A] | 0.0589 | 1.8e-05 |  | 304,000 M^-1 sec^-1 |  |  |  |  |  |  |  |  |  |  | 
CCOc1nc2ccc(C(C)NC(=O)[C@@H](NC(=O)OC(C)(C)C)C(C)C)c(C)c2c(=O)o1 (single isomer, unassigned) [7 Isomer B] | 0.0145 |  |  | 1,100,000 M^-1 sec^-1 | 2570 | 430 | 967 | 1140 | 967 | 1140 | 1550 | 710 | 0.000016 | 1.1e+06 | 1
CCOc1nc2ccc(NC(=O)CCNC(=O)OC(C)(C)C)c(C)c2c(=O)o1 [Example 2, 6-(N-tert-butyloxycarbonyl-β-alanyl)amino-5-methyl-2-ethoxy-4H-3,1-benzoxazin-4-one] | 1.1 | 0.000404 | 365000 |  | 3500 | 100 | 2860 | 130 | 460 | 790 | 200 | 1830 |  | 365000 | 1
CCOc1nc2ccc(NC(=O)CCN(C)C(=O)OC(C)(C)C)c(C)c2c(=O)o1 [Example 3, 6-(N-tert-butyloxycarbonyl-N-methyl-β-alanyl)-amino-5-methyl-2-ethoxy-3,1-benzoxazin-4-one] | 1.32 | 0.00042 | 320000 |  |  |  |  |  |  |  |  |  |  |  | 
CCOc1nc2ccc(N)c(CC)c2c(=O)o1 [Example 4] | 0.1 | 4.7e-05 | 470000 |  |  |  |  |  |  |  |  |  |  |  | 
CCOc1nc2ccc(NC(=O)CCN(C)C(=O)OC(C)(C)C)c(CC)c2c(=O)o1 [Example 5, 6-(N-tert-butyloxycarbonyl-N-methyl-β-alanyl)-amino-5-ethyl-2-ethoxy-3,1-benzoxazin-4-one] | 0.107 | 3e-05 | 281000 |  |  |  |  |  |  |  |  |  |  |  | 
CCOc1nc2ccc(NC(=O)CCN(C)S(=O)(=O)c3ccc(C)cc3)c(CC)c2c(=O)o1 [Example 6, 6-(N-4-methylbenzenesulfonyl-N-methyl-β-alanyl)-amino-5-ethyl-2-ethoxy-4H-3,1-benzoxazin-4-one] | 0.0933 | 6.9e-05 | 745000 |  | 11900 | 60 | 3450 | 220 | 340 | 2190 | 80 | 9312 |  | 745000 | 1
CCOc1nc2ccc(C(C)NC(=O)[C@H](C)NC(=O)OC(C)(C)C)c(C)c2c(=O)o1 (stereo partly drawn) [Example 8, 6-[1-(N-tert-butyloxycarbonyl-L-alanyl)-aminoethyl]-2-ethyloxy-5-methyl-4H-3,1-benzoxazin-4-one] | 0.0331 | 1.7e-05 | 520000 |  |  |  |  |  |  |  |  |  |  |  | 
CCOc1nc2cccc(C)c2c(=O)o1 [positive control, reference compound] | 0.513 | 7.2e-05 | 140000 |  |  |  |  |  |  |  |  |  |  |  | 
